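Protocol summary: plate cells (96-well), add compound at 5 concentrations, incubate 48 h, interpolate endpoints linearly. Abbreviation: GI50, concentration required for 50% inhibition of growth.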 Calls of active or inactive are those of the source. No stated cut-off is given here; in the data, active = GI50 up to about 1.1 µM and inactive = higher.
Legend:
Test in all cases: growth of human tumour cells (NCI), 48 h
[1] = system: 786-0
[2] = system: A498
[3] = system: A549
[4] = system: ACHN
[5] = system: CAKI-1
[6] = system: CCRF-CEM
[7] = system: COLO 205
[8] = system: DLD-1
[9] = system: DMS-114
[10] = system: DMS-273
[11] = system: EKVX
[12] = system: HCC 2998
[13] = system: HCT-116
[14] = system: HCT-15
[15] = system: HL-60
[16] = system: HOP-62
[17] = system: HT-29
[18] = system: IGROV-1
[19] = system: K562
[20] = system: KM-20L2
[21] = system: KM12
[22] = system: LOX IMVI
[23] = system: LXFL 529
[24] = system: M14
[25] = system: M19-MEL
[26] = system: MOLT-4
[27] = system: Malme-3M
[28] = system: NCI-H460
[29] = system: OVCAR-4
[30] = system: OVCAR-8
[31] = system: RPMI-8226
[32] = system: RXF 393
[33] = system: SF-268
[34] = system: SF-295
[35] = system: SF-539
[36] = system: SK-MEL-2
[37] = system: SK-MEL-5
[38] = system: SK-OV-3
[39] = system: SN12C
[40] = system: SNB-19
[41] = system: SNB-75
[42] = system: SR
[43] = system: SW-620
[44] = system: TK-10
[45] = system: U-251
[46] = system: UACC-257
[47] = system: UACC-62
[48] = system: UO-31
[49] = system: XF498
[50] = system: HOP-18
[51] = system: HOP-92
[52] = system: NCI-H226
[53] = system: OVCAR-3
[54] = system: SNB-78

With `O=[N+]([O-])c1ccc(C(O)/C(=N/O)c2nc3ccc(Cl)cc3nc2O)cc1` (stereo not drawn) the GI50 [1] was > 100 µM (inactive), the GI50 [2] was > 100 µM (inactive) and the GI50 [3] was > 100 µM (inactive). The GI50 [4] was > 100 µM (inactive), the GI50 [5] was > 100 µM (inactive) and the GI50 [6] was > 100 µM (inactive). The GI50 [7] was > 100 µM (inactive), the GI50 [8] was > 100 µM (inactive) and the GI50 [9] was > 100 µM (inactive). The GI50 [10] was > 100 µM (inactive), the GI50 [11] was > 100 µM (inactive) and the GI50 [12] was > 100 µM (inactive). For the same compound, the GI50 [13] was > 100 µM (inactive), the GI50 [14] was over 100 µM and the GI50 [15] was > 100 µM (inactive). For the same compound, the GI50 [16] was > 100 µM (inactive), the GI50 [17] was > 100 µM (inactive) and the GI50 [18] was > 100 µM (inactive). For the same compound, the GI50 [19] was > 100 µM (inactive), the GI50 [20] was > 100 µM (inactive) and the GI50 [21] was > 100 µM (inactive). For the same compound, the GI50 [22] was > 100 µM (inactive), the GI50 [23] was > 100 µM (inactive) and the GI50 [24] was > 100 µM (inactive). For the same compound, the GI50 [25] was > 100 µM (inactive), the GI50 [26] was > 100 µM (inactive) and the GI50 [27] was > 100 µM (inactive). For the same compound, the GI50 [28] was > 100 µM (inactive), the GI50 [29] was > 100 µM (inactive) and the GI50 [30] was > 100 µM (inactive). For the same compound, the GI50 [31] was > 100 µM (inactive), the GI50 [32] was > 100 µM (inactive) and the GI50 [33] was > 100 µM (inactive). The GI50 [34] was > 100 µM (inactive), the GI50 [35] was > 100 µM (inactive) and the GI50 [36] was > 100 µM (inactive). For the same compound, the GI50 [37] was > 100 µM (inactive), the GI50 [38] was > 100 µM (inactive) and the GI50 [39] was > 100 µM (inactive). For the same compound, the GI50 [40] was > 100 µM (inactive), the GI50 [41] was > 100 µM (inactive) and the GI50 [42] was > 100 µM (inactive). The GI50 [43] was > 100 µM (inactive), the GI50 [44] was > 100 µM (inactive) and the GI50 [45] was > 100 µM (inactive). For the same compound, the GI50 [46] was > 100 µM (inactive), the GI50 [47] was > 100 µM (inactive) and the GI50 [48] was > 100 µM (inactive). For the same compound, the GI50 [49] was > 100 µM (inactive).

With `CSc1nc(NC2OC(COC(C)=O)C(OC(C)=O)C(OC(C)=O)C2OC(C)=O)c(/N=C(\C)C(C)=O)c(=O)[nH]1` (stereo not drawn) the GI50 [1] was > 100 µM (inactive), the GI50 [3] was > 100 µM (inactive) and the GI50 [5] was > 100 µM (inactive). The GI50 [6] was > 100 µM (inactive), the GI50 [7] was > 100 µM (inactive) and the GI50 [8] was 79.1 µM (inactive). For the same compound, the GI50 [9] was > 100 µM (inactive), the GI50 [11] was > 100 µM (inactive) and the GI50 [12] was > 100 µM (inactive). The GI50 [13] was > 100 µM (inactive), the GI50 [15] was > 100 µM (inactive) and the GI50 [50] was > 100 µM (inactive). The GI50 [16] was 42.5 µM (inactive), the GI50 [51] was > 100 µM (inactive) and the GI50 [17] was > 100 µM (inactive). The GI50 [18] was > 100 µM (inactive), the GI50 [19] was > 100 µM (inactive) and the GI50 [21] was > 100 µM (inactive). For the same compound, the GI50 [24] was > 100 µM (inactive), the GI50 [25] was > 100 µM (inactive) and the GI50 [26] was > 100 µM (inactive). The GI50 [27] was > 100 µM (inactive), the GI50 [52] was > 100 µM (inactive) and the GI50 [53] was > 100 µM (inactive). For the same compound, the GI50 [29] was > 100 µM (inactive), the GI50 [30] was > 100 µM (inactive) and the GI50 [31] was > 100 µM (inactive). For the same compound, the GI50 [34] was > 100 µM (inactive), the GI50 [35] was > 100 µM (inactive) and the GI50 [36] was > 100 µM (inactive). The GI50 [37] was > 100 µM (inactive), the GI50 [38] was > 100 µM (inactive) and the GI50 [40] was > 100 µM (inactive). For the same compound, the GI50 [54] was > 100 µM (inactive), the GI50 [43] was > 100 µM (inactive) and the GI50 [44] was > 100 µM (inactive). For the same compound, the GI50 [46] was > 100 µM (inactive), the GI50 [47] was > 100 µM (inactive) and the GI50 [48] was > 100 µM (inactive).
